# Reference: PMC10518255, “A first-in-class pan-lysyl oxidase inhibitor impairs stromal remodeling and enhances gemcitabine response and survival in pancreatic cancer” (Nature Cancer, 2023)
# “And” between values parts separate entries of the source, which are not always exact repeats. Identical values can stand only once.
# Test system: pSTAT3
# Experiment: Immunohistochemistry of end-point KPC tumors: STAT3 activation
# Assay type: in vivo, mouse
# Details: for Quantification of STAT3 activation (pSTAT3 positive nuclear staining): Extended Data 6F, KPC tumours at endpoint, individual FOV
# Description: All tissues or matrices, including patient TMAs, were fixed in 10% buffered formalin and embedded in paraffin. The 4-μm sections of samples were deparaffinized with xylene and rehydrated in graded ethanol washes. For immunohistochemistry, Bond Dewax Solution (AR9222) was used. Antigen retrieval was performed using Bond RX H2(30) protocol: HIER 30 min ER1 (citrate pH 6) OR ER2 (EDTA pH 9) at 100 °C. Slides were quenched in BOND Polymer Refine Detection (Leica Biosystems DS9800). […] Slides were digitized on an Aperio slide scanner and representative areas per tumor acquired and analyzed by researchers blinded to the conditions of the experiment.
# Extended Data Fig. 6 PXS-5505 in combination with gemcitabine in a KPC model. a. Quantification of proliferating cells (Ki67 positive nuclear staining) in KPC tumors at end point, treated as indicated. 5 fields of view (500 μm × 500 μm) per mouse and 10 mice per cohort were scored. […] Quantification of percent coverage of αSMA positive staining in KPC tumors at end point, treated as indicated. 3 fields of view (1000 μm × 1000 μm) per mouse and 10 mice per cohort were scored. […] Quantification of percent coverage of PDGFR-ß positive staining in KPC tumors at end point, treated as indicated. 3 fields of view (1000 μm × 1000 μm) per mouse and 10 mice per cohort were scored. […] Quantification of pMLC2 positive staining in stromal regions of KPC tumors at end point, treated as indicated. 3 fields of view (500 μm × 500 μm) per mouse and 10 mice per cohort were scored. […] Quantification of tumor vasculature (CD31 positive staining) in KPC tumors at end point, treated as indicated. 3 fields of view (1000 μm × 1000 μm) per mouse and 10 mice per cohort were scored. […] Quantification of STAT3 activation (pSTAT3 positive nuclear staining) in KPC tumors at end point, treated as indicated. 3 fields of view (1000 μm × 1000 μm) per mouse and 5 mice per cohort were scored. […] Scale bars = 100 μm. g Quantification of macrophage infiltration (F4/80 positive staining) in KPC tumors at end point, treated as indicated. […]
SMILES,Quantification of STAT3 activation (pSTAT3 positive nuclear staining),pSTAT3-positive nuclear staining (KPC tumors at end point)
"Cl.Cl.NC/C=C(\F)CS(=O)(=O)c1cccc2cccnc12.O [PXS-5505, (Z)-3-fluoro-4-(quinolin-8-ylsulfonyl)but-2-en-1-amine dihydrochloride monohydrate]",2.225 and 1.368 and 3.504 and 0.042 and 0 (2×) and 3.991 and 1.153 and 0.6262 and 11.8493 and 3.81 and 4.532 and 0.05376,
"Nc1ccn([C@@H]2O[C@H](CO)[C@@H](O)C2(F)F)c(=O)n1 [Gem, gemcitabine]",1.773 and 0.7075 and 2.095 and 2.515 and 2.91 and 1.454 and 7.421 and 2.089 and 1.705 and 5.289 and 6.71 and 3.256 and 6.948 and 7.388 and 6.1144,significantly increased levels of pSTAT3-positive staining
